The source of these data is US20170081368A1, “PEPTIDES AS OXYTOCIN AGONISTS” (Hoffmann-La Roche Inc., priority 2014, published 2017).

Common to all, as to format: cell-based
Assay [1] deals with T1, human Oxytocin (OTR) receptor (Homo sapiens, UniProt P30559).
T1 construct: expressed in transfected cells
T1 sequence (P30559 1-389): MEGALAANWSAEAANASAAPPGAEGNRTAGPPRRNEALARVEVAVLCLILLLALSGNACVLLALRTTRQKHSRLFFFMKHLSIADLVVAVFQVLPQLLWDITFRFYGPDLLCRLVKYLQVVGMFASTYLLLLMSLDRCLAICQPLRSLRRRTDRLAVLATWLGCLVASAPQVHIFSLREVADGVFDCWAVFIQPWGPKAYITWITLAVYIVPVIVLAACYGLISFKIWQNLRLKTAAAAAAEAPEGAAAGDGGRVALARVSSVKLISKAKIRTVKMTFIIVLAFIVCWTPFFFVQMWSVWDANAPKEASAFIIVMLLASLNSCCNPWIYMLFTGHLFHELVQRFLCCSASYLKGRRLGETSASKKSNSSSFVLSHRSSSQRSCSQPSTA
In words: Calcium flux assay (FLIPR) in CHO cells expressing human OTR. To be noted: for Emax: CHO, maximum response normalized to endogenous full agonist = 100%, read-out: hOT efficacy; for EC50: agonist mode, CHO cells, calcium flux FLIPR, read-out: hOT EC50. The source says:
(§1) Chines Hamster Ovary (CHO) cells were transfected with expression plasmids encoding either the human Vla, the human Oxytocin (OTR) or the humanV2 receptor, the later in combination with the chimeric Gqs5 G protein to redirect the signal to Calcium flux. Stable cells were cloned by limiting dilution to yield monoclonal cell lines expressing either human Vla, human V2+Gqs5 or human OTR receptors and selected based on functional responses detected on a fluorometric imaging plate reader (FLIPR) detecting Calcium flux in the cell after receptor activation. The stable cell lines were grown in F-12 K Nutrient Mixture (Kaighns Modification), containing 10% foetal bovine serum (FBS), 1% penicillin-streptomycin, 1% L-glutamate, 200 ug/ml Geneticin at 37° C. in a 10% CO2 incubator at 95% humidity.
(§2) Calcium Flux Assays Using Fluorescent Imaging (Fluorometric Imaging Plate Reader, FLIPR)
(§3) On the afternoon before the assay, cells were plated at a density of 50,000 cells/well into black 96 well plates with clear bottoms to allow cell inspection and fluorescence measurements from the bottom of each well. The density of cells was sufficient to yield a confluent monolayer the next day. Hanks balanced salt solution, without phenol red, containing 20 mM HEPES (pH 7.3) and 2.5 mM probenecid (assay buffer) was prepared fresh for each experiment. Compound dilutions were made using a Beckman Biomek 2000 laboratory automation workstation, in assay buffer containing 1% DMSO. The dye-loading buffer consisted of a final concentration of 2 μM Fluo-4-AM (dissolved in DMSO and pluronic acid) in assay buffer. The existing culture media was removed from the wells and 100 μl of the dye-loading buffer was added to each well and incubated for approximately 60 min at 37° C. in a 5% CO2 incubator at 95% humidity. Once dye-loaded, the cells were washed thoroughly on an Embla cell washer with the assay buffer to remove any unincorporated dye. Exactly 100 μl assay buffer was left in each well.
(§4) Each 96 well plate containing dye-loaded cells was placed into the FLIPR machine and the laser intensity set to a suitable level to detect low basal fluorescence. To test compounds as agonists, 25 μl diluted compound was added to the plate 10 seconds into the fluorescent measurements and fluorescent response was recorded for 5 minutes. The fluorescence data was normalized to the endogenous full agonist dose-response set at 100% for the maximum response and 0% for the minimum. Each agonist concentration-response curve was constructed using a four parameter logistic equation with Microsoft Excel XLFit as follows: Y=Minimum+((Maximum−Minimum)/(1+10^(LogEC50−X)nH)), where y is the % normalized fluorescence, minimum is the minimum y, maximum is the maximum y, log EC50 is the log10 concentration which produces 50% of the maximum induced fluorescence, x is the log10 of the concentration of the agonist compound and H is the slope of the curve (the Hill Coefficient). The maximum value gives the efficacy of the agonist test compound in percentage. The concentration of agonist that produced a half-maximal response is represented by the EC50 value, the logarithm of which yielded the pEC50 value.
Background: A change in cytosolic calcium serves as a functional read-out for many receptors and channels.

The target of another assay is T2, human V2 receptor (Homo sapiens, UniProt P30518).
T2 construct: expressed in transfected cells
Put plainly: Calcium flux assay (FLIPR) in CHO cells expressing human V2+Gqs5. To be noted: for Emax: CHO, maximum response normalized to endogenous full agonist = 100%, read-out: hV2 efficacy; for EC50: agonist mode, CHO cells with chimeric Gqs5, calcium flux FLIPR, read-out: hV2 EC50.
Text: as §1, §2, §3, §4

For a further assay, the target named is T3, human V1a receptor (Homo sapiens, UniProt P37288).
T3 construct: expressed in transfected cells
In words: Calcium flux assay (FLIPR) in CHO cells expressing human V1a. The note with it: for EC50: agonist mode, CHO cells, calcium flux FLIPR, read-out: hV1a EC50.
Text: as §1, §2, §3, §4

Structures are written as SMILES. *1 amine or outer side, *2 acyl side, *3 side chain or, on linkers, in order; H or OH if unused. Where a SMILES comes first, the peptide text is derived from it. Bridges are numbered along the chain shown (N, C = ends). [ ]: non-standard residue; d: D form. Hcy(O2-CH2CH2CO) = O=C([C@H](CCS(=O)(=O)CCC(=O)[*:3])N[*:1])[*:2]; αMeL = CC(C)C[C@](C)(N)C(=O)O; Chg = N[C@H](C(=O)O)C1CCCCC1; NcPrGly = O=C(O)CNC1CC1

T2 sequence (P30518 whole entry): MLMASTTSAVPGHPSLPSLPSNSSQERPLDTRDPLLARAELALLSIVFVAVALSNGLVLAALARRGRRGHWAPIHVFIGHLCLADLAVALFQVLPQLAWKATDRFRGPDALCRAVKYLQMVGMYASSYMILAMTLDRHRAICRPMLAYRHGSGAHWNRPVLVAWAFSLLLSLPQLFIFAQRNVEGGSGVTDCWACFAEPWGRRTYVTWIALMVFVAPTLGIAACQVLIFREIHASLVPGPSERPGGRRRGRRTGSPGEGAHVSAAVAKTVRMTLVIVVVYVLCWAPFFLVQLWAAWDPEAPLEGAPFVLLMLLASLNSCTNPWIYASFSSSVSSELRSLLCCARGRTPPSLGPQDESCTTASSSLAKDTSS
T3 sequence (P37288 whole entry): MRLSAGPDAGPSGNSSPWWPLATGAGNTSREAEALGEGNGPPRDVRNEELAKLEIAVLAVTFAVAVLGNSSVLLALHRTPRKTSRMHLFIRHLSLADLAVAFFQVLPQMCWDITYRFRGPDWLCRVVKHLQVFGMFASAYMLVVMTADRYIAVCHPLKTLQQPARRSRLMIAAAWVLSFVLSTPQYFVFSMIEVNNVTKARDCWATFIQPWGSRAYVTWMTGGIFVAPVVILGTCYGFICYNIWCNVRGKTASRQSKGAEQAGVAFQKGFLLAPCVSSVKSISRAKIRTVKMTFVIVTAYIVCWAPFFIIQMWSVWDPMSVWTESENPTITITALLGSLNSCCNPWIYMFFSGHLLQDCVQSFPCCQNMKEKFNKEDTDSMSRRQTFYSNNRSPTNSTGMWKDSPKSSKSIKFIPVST

As to `CC[C@H](C)[C@@H]1NC(=O)[C@H](Cc2ccc(O)cc2)NC(=O)CCS(=O)(=O)CC[C@@H](C(=O)N2CCC[C@H]2C(=O)N[C@@H](CC(C)C)C(=O)NCC(N)=O)NC(=O)[C@H](CC(N)=O)NC(=O)[C@H](CCC(N)=O)NC1=O` [Example 1] (HELM PEPTIDE1{Y.I.Q.N.[O=C([C@H](CCS(=O)(=O)CCC(=O)[*:3])N[*:1])[*:2]].P.L.G.[am]}$PEPTIDE1,PEPTIDE1,1:R1-5:R3$$$V2.0), the figures for the Emax (in assay [1]; on human V2 receptor) were 120% and 101%, respectively. The EC50 came to 0.8 nM in assay [1], 2980 nM on human V2 receptor and 1630 nM on human V1a receptor.
The like results for `CC[C@H](C)[C@@H]1NC(=O)[C@H](Cc2ccc(O)cc2)NC(=O)CCS(=O)(=O)CC[C@@H](C(=O)N(C)CC(=O)N[C@@H](CC(C)C)C(=O)NCC(N)=O)NC(=O)[C@H](CC(N)=O)NC(=O)[C@H](CCC(N)=O)NC1=O` [Example 2] (HELM PEPTIDE1{Y.I.Q.N.[O=C([C@H](CCS(=O)(=O)CCC(=O)[*:3])N[*:1])[*:2]].[Sar].L.G.[am]}$PEPTIDE1,PEPTIDE1,1:R1-5:R3$$$V2.0) were, in that order, 107%, 86%, 0.8 nM, 3980 nM and more than 27000 nM.
The like results for `CC[C@H](C)[C@@H]1NC(=O)[C@H](Cc2ccc(O)cc2)NC(=O)CCS(=O)(=O)CC[C@@H](C(=O)N(CC(=O)N[C@@H](CC(C)C)C(=O)NCC(N)=O)C2CC2)NC(=O)[C@H](CC(N)=O)NC(=O)[C@H](CCC(N)=O)NC1=O` [Example 27] (HELM PEPTIDE1{Y.I.Q.N.[O=C([C@H](CCS(=O)(=O)CCC(=O)[*:3])N[*:1])[*:2]].[O=C(CN(C1CC1)[*:1])[*:2]].L.G.[am]}$PEPTIDE1,PEPTIDE1,1:R1-5:R3$$$V2.0) were, in that order, 125%, 110%, 0.5 nM, 3730 nM and more than 27000 nM.
With `CC[C@H](C)[C@@H]1NC(=O)[C@H](Cc2ccc(O)cc2)NC(=O)CCS(=O)(=O)CC[C@@H](C(=O)N(CC(=O)N[C@@](C)(CC(C)C)C(=O)NCC(N)=O)C2CC2)NC(=O)[C@H](CC(N)=O)NC(=O)[C@H](CCC(N)=O)NC1=O` [Example 28] (YIQN[Hcy(O2-CH2CH2CO)][NcPrGly][αMeL]G-NH2; lactam N-5), the Emax is 105% in assay [1] and 129% on human V2 receptor. For the same compound, the results for the EC50 (in assay [1]; on human V2 receptor; on human V1a receptor) were 0.7 nM, 9420 nM and more than 27000 nM, respectively.
For the compound `CC[C@H](C)[C@H](NC(=O)CN(C(=O)[C@@H]1CCS(=O)(=O)CCC(=O)N[C@@H](Cc2ccc(O)cc2)C(=O)N[C@@H]([C@@H](C)CC)C(=O)N[C@@H](CCC(N)=O)C(=O)N[C@@H](CC(N)=O)C(=O)N1)C1CC1)C(=O)NCC(N)=O` [Example 31] (HELM PEPTIDE1{Y.I.Q.N.[O=C([C@H](CCS(=O)(=O)CCC(=O)[*:3])N[*:1])[*:2]].[O=C(CN(C1CC1)[*:1])[*:2]].I.G.[am]}$PEPTIDE1,PEPTIDE1,1:R1-5:R3$$$V2.0), in assay [1], the Emax amounted to 115% and the EC50 is 0.4 nM. Further, at human V2 receptor, the Emax was 150% and the EC50 amounted to 2940 nM.
`CC[C@H](C)[C@@H]1NC(=O)[C@H](Cc2ccc(O)cc2)NC(=O)CCS(=O)(=O)CC[C@@H](C(=O)N(CC(=O)N[C@H](C(=O)NCC(N)=O)C2CCCCC2)C2CC2)NC(=O)[C@H](CC(N)=O)NC(=O)[C@H](CCC(N)=O)NC1=O` [Example 32] (YIQN[Hcy(O2-CH2CH2CO)][NcPrGly][Chg]G-NH2; lactam N-5): the Emax in assay [1] was determined as 120%; at human V2 receptor, 155%. The figures for the EC50 (in assay [1]; on human V2 receptor; on human V1a receptor) were 0.26 nM, 2360 nM and 2230 nM, respectively. For the same compound, the hV1a efficacy at human V1a receptor (maximum response normalized to endogenous full agonist = 100%) turned out to be 38%.

By EC50 is commonly meant the concentration that produces a half-maximal response.
